Measured values: PubChem BioAssay AID463199 (Broad Institute, 2010)
Calls of active or inactive are those of the source.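 Rule for the calls: active = AC50, the dose giving half-maximal effect, exceeds a fixed cutoff for a compound that rescues yeast growth under heat; inactive = the rest, inconclusive results apart.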

System: S. cerevisiae Burl-1 ts mutant growth, BacTiter-Glo, 38.5C 24 h
Assay: restored growth of temperature-sensitive Burl-1 yeast – whole organism, S. cerevisiae, Burl-1 ts mutant, luminescence, counter-screen for SUMOylation pathway inhibitor project, dose response (AID 463199)

| SMILES | AC50 |
| --- | --- |
| COc1ccc(NC(=O)c2cc(S(=O)(=O)Nc3ccc(OC)cc3)cs2)cc1 | > 42 µM (inactive) |
| CCOC(=O)c1ccc(NC(=O)c2nc[nH]c2C(=O)N2CCc3ccccc3C2)cc1 | > 42 µM (inactive) |
| CCOC(=O)CN1NC2(CCC(C(C)(C)C)CC2)NC1=S (configuration not stated) | > 42 µM (inactive) |
| COc1ccc(-c2cc(C(F)(F)F)n3ncc(C(=O)O)c3n2)cc1OC | > 42 µM (inactive) |
| COc1cccc(/C=C2\SC(N3CCC(C)CC3)=NC2=O)c1OC | > 42 µM (inactive) |
| COc1ccccc1CNC(=O)[C@H](C)NC(=O)C1CCN(C(=O)[C@@H](N)CC(C)C)CC1 | > 42 µM (inactive) |
| CCOC(=O)C1CC(c2ccccc2)=NNC1=O (configuration not stated) | > 42 µM (inactive) |
| C=CCNc1nnc(SC2CC(=O)N(c3ccc(OCCC)cc3)C2=O)s1 (configuration not stated) | > 42 µM (inactive) |
| Cc1ccc(S(=O)(=O)N2[C@@H](c3ccccc3)C(C(=O)O)=CC[C@H]2c2ccc(Cl)cc2)cc1 | > 42 µM (inactive) |
| CCOC(=O)N1CCN(S(=O)(=O)c2ccc(Br)s2)CC1 | > 42 µM (inactive) |
| O=C(CCc1ccccc1)NNC(=S)Nc1ccc(F)cc1 | > 42 µM (inactive) |
| CCCCn1c(=O)[nH]c(=O)c2c1nc(COc1ccc(C#N)cc1)n2CCC | > 42 µM (inactive) |
| COc1cccc(CNC(=O)CCCn2nc(C)c3c(C)n(-c4ccccc4)nc3c2=O)c1 | > 42 µM (inactive) |
| Cc1cc(=O)oc2ccc(OC(=O)CC(C)C)cc12 | > 42 µM (inactive) |
| O=S1(=O)CC(N2CCCCC2)C(N2CCCCC2)C1 (configuration not stated) | > 42 µM (inactive) |
| C/C(=N\NC(=O)Cc1csc(N2CCOCC2)n1)c1ccccc1 | > 42 µM (inactive) |
| COCC(=O)NNC(=O)c1ccccc1OC | > 42 µM (inactive) |
| O=C(Cn1nc(C(F)(F)F)c2c1CCCC2)N1CCOCC1 | > 42 µM (inactive) |
| O=[N+]([O-])c1cc([N+](=O)[O-])c2cc3ccccc3nc2c1 | > 42 µM (inactive) |
| Cc1cc(S(=O)(=O)NCC(C)C)ccc1OCC(=O)N1CCOCC1 | > 42 µM (inactive) |
| Nc1cc(Cl)ccc1N1CCOCC1 | > 42 µM (inactive) |
| N#CC1=C(N)Oc2c(ccc3ccccc23)C1c1cccs1 (configuration not stated) | > 42 µM (inactive) |
| CCCCC(=O)Nc1nnc(/C=C/c2ccc(OC)cc2)s1 | > 42 µM (inactive) |
| CN(NC(=O)c1ccccc1F)c1nc(C(F)(F)F)nc2ccccc12 | > 42 µM (inactive) |
| CCCCOCCCNS(=O)(=O)Cc1ccccc1 | > 42 µM (inactive) |
| CC(C)(C)C(=O)C(Cl)C(=O)Nc1ccccc1 (configuration not stated) | > 42 µM (inactive) |

| SMILES | AC50 |
| --- | --- |
| COC(=O)[C@@H]1C[C@@H]2CC[C@@H](O)C[C@@H]2N1Cc1ccc(N2CCN(C)CC2)cc1 | > 42 µM (inactive) |
| CCC(C)[C@H](NC(=O)Nc1ccc(S(N)(=O)=O)cc1)C(=O)OC (some centres not stated) | > 42 µM (inactive) |
| C=CC[N+]1(CC#Cc2ccccc2)CCCC1 | > 42 µM (inactive) |
| Clc1ccc(N=c2ssnc2Cl)nc1 | > 42 µM (inactive) |
| COC(=O)C12CCC3(SCCS3)C(C(=O)OC)(CCC13SCCS3)C2 | > 42 µM (inactive) |
| Cc1ccccc1-c1nnc(SCc2ccc(F)cc2)o1 | > 42 µM (inactive) |
| COc1ccc(NC(=O)c2ccc(-n3cncn3)c([N+](=O)[O-])c2)cc1 | > 21 µM (inactive) |
| O=C(CSc1nnc(CNC(=O)c2ccccc2F)o1)NCCc1ccccc1 | > 42 µM (inactive) |
| COc1cc(C(=O)NCCOc2cc(C)cc(C)c2)cc(OC)c1OC | > 42 µM (inactive) |
| CCC(C(=O)Nc1cccnc1)c1ccccc1 (configuration not stated) | > 42 µM (inactive) |
| COc1cc2nc(CSc3ncn[nH]3)[nH]c(=O)c2cc1OC | > 42 µM (inactive) |
| Cc1ccc(C(=O)N/C(=C\c2cccs2)C(=O)NCc2ccncc2)cc1 | > 42 µM (inactive) |
| O=C(N/N=C\c1cn(-c2ccccc2)nc1-c1ccccc1)c1ccc(Br)o1 | > 42 µM (inactive) |
| CN(CCOc1ccc(-c2ccn(S(=O)(=O)c3cccc4ccccc34)n2)cc1)c1ccccn1 | > 42 µM (inactive) |
| CCNC(=O)/C(C#N)=C/c1c(N2CCCCCC2)nc2ccccn2c1=O | > 42 µM (inactive) |
| O=C(O)COc1ccc(=O)n(-c2ccccc2)n1 | > 42 µM (inactive) |
| CC(=O)Nc1cccc(NC(=S)Nc2ccc(F)cc2F)c1 | > 42 µM (inactive) |
| O=C(CCC(=O)OC(C(=O)c1ccccc1)c1ccccc1)Nc1ccccc1 (configuration not stated) | > 21 µM (inactive) |
| CCOc1ccccc1/C=N\Nc1cnn(Cc2ccccc2)c(=O)c1Cl | > 42 µM (inactive) |
| Cc1cc(N2CCN(C)CC2)nc2ccc(NC(=S)N3CCC4(CC3)OCCO4)cc12 | > 42 µM (inactive) |
| O=C(Nc1ccc2[nH]c(=O)[nH]c2c1)c1c(F)c(F)c(F)c(F)c1F | 25.8 µM |
| Cn1c(=O)c2c(ncn2CC(=O)N2CCCCCC2)n(C)c1=O | > 42 µM (inactive) |
| CCOC(=O)c1ccc(NC(=O)NCc2ccncc2)cc1 | > 42 µM (inactive) |
| COC(=O)CN1C(=O)c2cccc3cccc1c23 | > 42 µM (inactive) |
| Cc1sc2nc(SCC(=O)NCCOCCO)n(C)c(=O)c2c1C | > 42 µM (inactive) |
| CC(C)(C)CC(=O)Nc1cc(S(=O)(=O)N2CCOCC2)ccc1N1CCCC1 | > 42 µM (inactive) |

| SMILES | AC50 |
| --- | --- |
| CC(=O)N1CCCc2cc(S(=O)(=O)Nc3ccc(C)cc3C)ccc21 | > 42 µM (inactive) |
| COc1ccc(NC(=O)C2CCCN(C(=O)Nc3cccc(OC)c3)C2)cc1 (configuration not stated) | > 42 µM (inactive) |
| CC1CCCC(C)N1C(=O)CSc1nnnn1-c1cccc2c1CCCC2 (configuration not stated) | > 42 µM (inactive) |
| O=C(Nc1cccc(O)c1)C(Cc1ccccc1)N1C(=O)c2cccc3cccc(c23)C1=O (configuration not stated) | > 42 µM (inactive) |
| Cc1cc(C)cc(OCC(=O)Nc2ccc(N3CCN(C(=O)c4ccco4)CC3)cc2)c1 | > 42 µM (inactive) |
| O=C1CC(c2c[nH]c3ccccc23)C(=O)N1c1ccccc1 (configuration not stated) | > 42 µM (inactive) |
| O=C(O)c1ccc(COc2c(F)c(F)cc(F)c2F)cc1 | > 42 µM (inactive) |
| CC(NC(=O)OCc1ccccc1)C(=O)N1CC(O)CC1C(=O)O (configuration not stated) | > 21 µM (inactive) |
| COc1ccc(/C=C2\SC(=S)N(CCCC(=O)Nc3cc(C)on3)C2=O)cc1OC | > 42 µM (inactive) |
| Cc1ccc(-n2c(SCC(=O)N(C)C3CCS(=O)(=O)C3)nc3ccccc3c2=O)cc1 (configuration not stated) | > 42 µM (inactive) |
| C=CCC(NCCCO)c1cccc(OC)c1OC (configuration not stated) | > 42 µM (inactive) |
| O=c1c2ccccc2nc(SCc2ccc([N+](=O)[O-])cc2)n1CCCO | > 42 µM (inactive) |
| COc1ccc(NC(=O)C2CCCN2S(=O)(=O)c2cccc3cccnc23)cc1OC (configuration not stated) | > 42 µM (inactive) |
| O=C(CSc1nnc(CNC(=O)c2ccccc2)o1)NCc1ccco1 | > 42 µM (inactive) |
| Cc1ccc(S(=O)(=O)NCCS(=O)(=O)N2CCN(c3ccc(F)cc3)CC2)cc1 | > 42 µM (inactive) |
| Fc1ccc(-c2nnc3ccc(N4CCCC4)nn23)cc1 | > 42 µM (inactive) |
| COc1ccc(NC(=O)CCCc2ccccc2)cc1OC | 9.43 µM |
| Clc1cc(Br)ccc1OCCOCCN1CCOCC1 | > 42 µM (inactive) |
| CC1CCN(CCCCOc2ccc(F)cc2)CC1 | > 42 µM (inactive) |
| O=C(N/N=C/c1cccs1)c1cncc(Br)c1 | > 42 µM (inactive) |
| O=C(NCC1CCCO1)c1nn2c(C(F)(F)F)cc(-c3cc(Br)cs3)nc2c1Br (configuration not stated) | > 42 µM (inactive) |
| CN(c1ccccc1C(=O)N1CCN(Cc2ccc3c(c2)OCO3)CC1)S(C)(=O)=O | > 42 µM (inactive) |
| COc1ccc(NS(=O)(=O)c2cccc(C(=O)NCCCn3ccnc3)c2)cc1 | > 42 µM (inactive) |
| Nc1nnnn1CC(=O)N/N=C/c1cccs1 | > 42 µM (inactive) |
| CCN(C(=O)Cn1c(=O)oc2ccccc21)c1cccc(C)c1 | > 42 µM (inactive) |
| CC(C)C[C@@H](CO)N1CCN(Cc2cccnc2)CCC1=O | > 42 µM (inactive) |

| SMILES | AC50 |
| --- | --- |
| CCn1c(SCC(=O)OC)nnc1-c1ccncc1 | > 42 µM (inactive) |
| O=C(Nc1cc(F)ccc1F)C1CCCO1 (configuration not stated) | > 42 µM (inactive) |
| C=C(C)C(=O)Nc1cccnc1Oc1ccc(F)cc1F | > 42 µM (inactive) |
| COc1ccccc1CNC(=O)CN(c1ccc(C)cc1)S(=O)(=O)c1c(C)n[nH]c1C | > 42 µM (inactive) |
| CC(=O)c1ccccc1C(=O)N1CCCC(N2CCN(Cc3ccc4c(c3)OCO4)CC2)C1 (configuration not stated) | > 42 µM (inactive) |
| CCCC(=O)Oc1c(S(=O)(=O)c2ccc(C)cc2)c(C)nn1C(C)(C)C | > 42 µM (inactive) |
| Cc1nc2ccc(S(=O)(=O)NC(CC(C)C)C(=O)O)cc2s1 (configuration not stated) | > 42 µM (inactive) |
| COC(=O)C(CC(C)C)NC(=O)CNC(=O)c1ccccc1C (configuration not stated) | > 42 µM (inactive) |
| COc1cc(CN2CCC(Oc3cc(C(=O)NC4CC4)ccc3OC)CC2)cc(OC)c1 | 16.9 µM |
| O=C1NC(=O)N(Cc2ccccc2)C1=O | > 42 µM (inactive) |
| Cc1ccc(-n2c(-c3ccco3)nc3c(cnn3-c3ccc(C)cc3)c2=O)cc1 | > 42 µM (inactive) |
| Cc1ccc(NC(=O)Cn2nc(C)c3ccccc3c2=O)cc1 | > 42 µM (inactive) |
| O=C(c1cc2ccccc2o1)N1CCN(C/C=C/c2ccccc2)CC1 | > 42 µM (inactive) |
| COc1ccc(C2NC(=O)c3ccccc3O2)cc1 (configuration not stated) | > 42 µM (inactive) |
| COc1cc2c(cc1OC)CN(S(=O)(=O)c1cccc(F)c1)CC2 | > 42 µM (inactive) |
| O=C(Cc1ccccc1)N1CCCC1c1ccccc1 (configuration not stated) | > 42 µM (inactive) |
| Cc1ccc(NS(=O)(=O)c2c(C)[nH]c(C)c2C(=O)N2CCCCC2)c(Cl)c1 | > 42 µM (inactive) |
| C/C(=N\N=C(c1ccccc1)c1ccccc1)c1ccco1 | > 42 µM (inactive) |
| CN(CC(=O)N1CCc2[nH]c3ccc(F)cc3c2C1)CC1OCCO1 | > 42 µM (inactive) |
| CC(NC(=O)C1CCCCC1)C(=O)NC1=NCCS1 (configuration not stated) | > 42 µM (inactive) |
| CCC1(CC)NC(=O)N(CC(=O)N2N=C(c3ccc(Cl)cc3)CC2c2ccco2)C1=O (configuration not stated) | > 42 µM (inactive) |
| O=C(N/N=C/c1ccccn1)NC12CC3CC(CC(C3)C1)C2 | > 42 µM (inactive) |
| CCCCC(O)(c1ccc(F)cc1)C(CN1CCOCC1)c1ccc(Cl)cc1 (configuration not stated) | > 21 µM (inactive) |
| Cc1cc(C)c2c(Cn3ccnc3)cc(=O)oc2c1 | > 42 µM (inactive) |
